Assay results taken from patent publication US6558933B2, “Mutant 1,3-propanediol dehydrogenase” (Genencor International, INC, priority 1999, dated 2003).
Substitutions are numbered along the chain they refer to. Like-named read-outs stand apart in the source and are kept apart here.

Key:
[1] = target: T1, E. blattae 1,3-propanediol dehydrogenase (PDD), mutant His 105 to Leu, ATCC PTA-92 (Eb_GEBT), SEQ ID NO: 2 (Shimwellia blattae, UniProt Q3ZL59, H105L); assay: Kinetics of mutant 1,3-propanediol dehydrogenase (PDD), partially purified from E. blattae 33429 derivative PTA-92; assay type: biochemical, Escherichia blattae
T1 construct: concentrated on PM30 membrane
T1 sequence (Q3ZL59 1-387 H105L): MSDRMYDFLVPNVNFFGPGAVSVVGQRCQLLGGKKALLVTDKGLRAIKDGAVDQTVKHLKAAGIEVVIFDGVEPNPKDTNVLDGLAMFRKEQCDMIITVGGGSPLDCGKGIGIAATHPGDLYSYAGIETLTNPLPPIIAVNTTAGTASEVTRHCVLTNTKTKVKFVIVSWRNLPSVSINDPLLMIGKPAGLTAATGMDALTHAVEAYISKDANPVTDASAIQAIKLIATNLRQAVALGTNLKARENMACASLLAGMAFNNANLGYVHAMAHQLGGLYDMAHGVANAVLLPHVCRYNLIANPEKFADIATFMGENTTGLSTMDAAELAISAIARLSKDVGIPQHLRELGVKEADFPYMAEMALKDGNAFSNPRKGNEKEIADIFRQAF
Method: (§1) Strains—Wild type ATCC 33429, E. blattae comprising the mutant PDD ATCC accession number PTA-92.
(§2) Growth—Cells were grown in a complex medium at 30C 500 ml in a 2800 ml fernbach with shaking at 225 rpm for 20 hr. The medium consists of KH2PO4, 5.4 g/L; (NH4)2SO4, 1.2 g/L; MgSO47H2O, 0.4 g/L; yeast extract, 2.0 g/L; tryptone, 2.0 g/L; and glycerol, 9.2 g/L in tap water. The pH was adjusted to 7.1 with KOH before autoclaving (Honda, et al., 1980, J. Bacteriol, 143:1458-1465).
(§3) Extract prep—Cells were harvested by centrifugation with care to avoid anaerobic conditions. Pellets were resuspended in 100 mM Tricine pH 8.2 containing 50 mM KCl and 1 mM DTT. Cells were disrupted by passage through a French pressure cell. Crude extracts were clarified by centrifugation at 20 K×g for 20 min followed by 100 K×g for 1 hr to yield the high speed supernatant (HSS) fraction.
(§4) Assays—the assay for PDD was performed as described by Johnson, E. A. et al., 1987, J. Bacteriol. 169:2050-2054.
Partial purification of PDD—HSS was separated on a 16×100 Poros 20HQ column. The buffers were A, 60 mM HEPES, pH 7.4 containing 100 uM MnCl and B, A buffer containing 500 mM KCl. The column was loaded and developed at 10 ml/min. The gradient was 10 CV wash. A linear gradient to 70% B in 10 CV, and 1 CV to 100% B. The activity was detected in the very early fractions of the gradient. Pooled column fractions of the 33429 strain were used as collected for assays after the addition of additional DTT to 1 mM. The active fractions from the E. blattae 33429 derivative strain assigned designation PTA-92 were pooled and concentrated on a PM30 membrane and used as concentrated after the addition of additional 1 mM DTT.

[2] = target: T2, E. blattae 1,3-propanediol dehydrogenase (PDD), wild type, strain ATCC 33429 (Eb_429T), SEQ ID NO: 6 (Shimwellia blattae, UniProt Q3ZL59); assay: Kinetics of wild-type 1,3-propanediol dehydrogenase (PDD), partially purified from E. blattae ATCC 33429; assay type: biochemical, Escherichia blattae; conditions: wild type strain 33429, pooled column fractions with 1 mM DTT
T2 sequence (Q3ZL59 1-387): T1 sequence (Q3ZL59 1-387 H105L) with L105H
Method: as §1, §2, §3, §4
Partial purification of PDD—HSS was separated on a 16×100 Poros 20HQ column. The buffers were A, 60 mM HEPES, pH 7.4 containing 100 uM MnCl and B, A buffer containing 500 mM KCl. The column was loaded and developed at 10 ml/min. The gradient was 10 CV wash. A linear gradient to 70% B in 10 CV, and 1 CV to 100% B. The activity was detected in the very early fractions of the gradient. […]

SMILES	Km for NAD (change in words) ([1]; mutant PDD)	Km ([2]; read-out: Km (NAD))	Km for 1,3-propanediol (change in words) ([1]; mutant PDD)	Km of the mutant PDD relative to Km of wild-type PDD for 1,3-propanediol ([1]; mutant PDD vs wild-type PDD)	Km ([2]; read-out: Km (Propanediol))
NC(=O)c1ccc[n+]([C@@H]2O[C@H](COP(=O)([O-])OP(=O)(O)OC[C@H]3O[C@@H](n4cnc5c(N)ncnc54)[C@H](O)[C@@H]3O)[C@@H](O)[C@H]2O)c1 [NAD]	altered	0.057 mM			
OCCCO [1,3-propanediol]			altered	about 3 times	28 mM
